Reference: patent US20260159536A1, “AKR1C3-ACTIVATED DNA ALKYLATING AGENT, AND MEDICAL APPLICATION THEREOF” (ASCENTAWITS PHARMACEUTICALS, LTD., priority 2021, published 2026)

Key:
Design in all cases: species or system BALB/c nude mice
[1] = system: HuPrime model LI6280 human liver cancer; test: In vivo pharmacodynamics, liver cancer LI6280 PDX model; conditions: for Tumor volume: 30 mg/kg p.o.
Description: Experiment Instruction: BALB/c nude mice were subcutaneously inoculated with HuPrime® model LI6280 tumour blocks to establish a subcutaneous transplantation tumour model of human liver cancer. […] The efficacy was evaluated according to the relative tumor inhibition rate TGI (%), and the safety was evaluated according to the change in body weight and the death of the animals.

[2] = system: human liver cancer LI6652; test: In vivo pharmacodynamics, liver cancer LI6652 subcutaneous xenograft PDX model; conditions: for Tumor volume: 30 mg/kg p.o.
Description: The pharmacodynamic analysis of each group in liver cancer LI6652 model was performed on Day 31 after administration, and the results were shown in Table 12.

[3] = system: HuPrime model LI6643 human liver cancer; test: In vivo pharmacodynamics, liver cancer LI6643 PDX model (Compound A, Sorafenib, AST-3424; section 4.7); conditions: for Tumor volume: 30 mg/kg p.o.
Description: Experiment Instruction: BALB/c nude mice were subcutaneously inoculated with HuPrime® model LI6643 tumor blocks to establish a subcutaneous grafted tumor model of human liver cancer. […] The efficacy was evaluated according to the relative tumor inhibition rate TGI (%), and the safety was evaluated according to the change in body weight and the death of the animals.

[4] = system: HuPrime model LI6643 human liver cancer; test: In vivo pharmacodynamics, liver cancer LI6643 PDX model (Compound A, Sorafenib; section 4.8); conditions: for Tumor volume: 20-30 mg/kg p.o.
Description: Experiment Instruction: BALB/c nude mice were subcutaneously inoculated with HuPrime® model LI6643 tumor blocks to establish a subcutaneous transplantation tumor model of human liver cancer. […] The efficacy was evaluated according to the relative tumor inhibition rate TGI (%), and the safety was evaluated according to the change in body weight and the death of the animals.

[5] = system: HuPrime model LI1005 human liver cancer; test: In vivo pharmacodynamics, liver cancer LI1005 PDX model; conditions: for Tumor volume: 30 mg/kg p.o.
[6] = system: human liver cancer HepG2 cells; test: In vivo pharmacodynamics, liver cancer HepG2 CDX model
Description: Experiment Instruction: BALB/c nude mice were subcutaneously inoculated with human liver cancer HepG2 cells to establish a subcutaneous transplantation tumor model of human liver cancer. […] The efficacy was evaluated according to the relative tumor inhibition rate TGI (%), and the safety was evaluated according to the change in body weight and the death of the animals.

[7] = system: HuPrime model LI6664 human liver cancer; test: In vivo pharmacodynamics, liver cancer LI6664 PDX model; conditions: for Size of tumor volume: Group2, Sorafenib 30 mg/kg
[8] = system: human liver cancer LI6652; test: In vivo pharmacodynamics, liver cancer LI6652 subcutaneous xenograft PDX model; conditions: 30 mg/kg p.o. QDx21; Day 28
[9] = 20-30 mg/kg p.o. QD (30 mg/kg day0-day11, 20 mg/kg day 12-day20), Day 35
[10] = 30 mg/kg, QDx21 Days, p.o., Day 53

## CNC(=O)c1cc(Oc2ccc(NC(=O)Nc3ccc(Cl)c(C(F)(F)F)c3)cc2)ccn1 [Sorafenib, reference compound]
[1]; 30 mg/kg p.o. QDx21, Day 17
  T/C (%): 49.65%
  TGI (%): 50.35%
[1]; 30 mg/kg p.o. QDx21, Day 17, in mm³ (unit assumed)
  Tumor volume (x ± S): 1076.45 ± 230.21
[1]; Day 0
  Tumor volume: 103.93 mm^3
[1]; Day 3
  Tumor volume: 168.82 mm^3
[1]; Day 7
  Tumor volume: 269.83 mm^3
[1]; Day 10
  Tumor volume: 439.29 mm^3
[1]; Day 14
  Tumor volume: 731.99 mm^3
[1]; Day 17
  Tumor volume: 1076.45 mm^3
[1]; Day 21
  Tumor volume: 1241.19 mm^3
[1]; Day 24
  Tumor volume: 1504.89 mm^3
[1]; Day 28
  Tumor volume: 2218.52 mm^3
[1]; Day 31
  Tumor volume: 2313.01 mm^3
[2]; 30 mg/kg p.o. QDx21, Day 28
  T/C (%): 17.04%
  TGI (%): 82.96%
[2]; Day 0
  Tumor volume: 125.84 mm^3
[2]; Day 3
  Tumor volume: 146.95 mm^3
[2]; Day 7
  Tumor volume: 196.51 mm^3
[2]; Day 10
  Tumor volume: 212.41 mm^3
[2]; Day 14
  Tumor volume: 217.19 mm^3
[2]; Day 17
  Tumor volume: 191.72 mm^3
[2]; Day 21
  Tumor volume: 178.69 mm^3
[2]; Day 24
  Tumor volume: 209.42 mm^3
[2]; Day 28
  Tumor volume: 315.93 mm^3
[2]; Day 31
  Tumor volume: 441.67 mm^3
[3]; 30 mg/kg p.o. QDx21, Day 21
  T/C (%): 37.88%
  TGI (%): 62.12%
[3]; 30 mg/kg p.o. QDx21, Day 21, in mm³
  Tumor volume (x ± S): 214.75 ± 31.53
[3]; Day 0
  Tumor volume: 124.67 mm^3
[3]; Day 3
  Tumor volume: 170.03 mm^3
[3]; Day 7
  Tumor volume: 185.13 mm^3
[3]; Day 10
  Tumor volume: 193.95 mm^3
[3]; Day 14
  Tumor volume: 189.87 mm^3
[3]; Day 17
  Tumor volume: 171.25 mm^3
[3]; Day 21
  Tumor volume: 214.75 mm^3
[3]; Day 24
  Tumor volume: 238.48 mm^3
[3]; Day 28
  Tumor volume: 309.08 mm^3
[4]; [9]
  T/C (%): 21.81%
  Tumor volume (x ± S): 392.20 ± 64.05
[4]; Day 0
  Tumor volume: 126.16 mm^3
[4]; Day 4
  Tumor volume: 163.51 mm^3
[4]; Day 7
  Tumor volume: 205.85 mm^3
[4]; Day 11
  Tumor volume: 235.50 mm^3
[4]; Day 14
  Tumor volume: 279.42 mm^3
[4]; Day 18
  Tumor volume: 291.41 mm^3
[4]; Day 21
  Tumor volume: 287.76 mm^3
[4]; Day 25
  Tumor volume: 326.85 mm^3
[4]; Day 28
  Tumor volume: 346.56 mm^3
[4]; Day 32
  Tumor volume: 385.09 mm^3
[4]; Day 35
  Tumor volume: 392.20 mm^3
[4]; Day 39
  Tumor volume: 431.87 mm^3
[4]; Day 42
  Tumor volume: 451.48 mm^3
[4]; Day 46
  Tumor volume: 521.44 mm^3
[4]; Day 49
  Tumor volume: 585.72 mm^3
[4]; Day 53
  Tumor volume: 622.46 mm^3
[5]; 30 mg/kg p.o. QDx21, Day 35
  T/C (%): 28.26%
  TGI (%): 71.74%
[5]; 30 mg/kg p.o. QDx21, Day 35, in mm³ (unit assumed)
  Tumor volume (x ± S): 294.09 ± 60.93
[5]; Day 0
  Tumor volume: 102.89 mm^3
[5]; Day 3
  Tumor volume: 121.64 mm^3
[5]; Day 7
  Tumor volume: 136.21 mm^3
[5]; Day 10
  Tumor volume: 136.21 mm^3
[5]; Day 14
  Tumor volume: 136.89 mm^3
[5]; Day 17
  Tumor volume: 140.09 mm^3
[5]; Day 21
  Tumor volume: 142.56 mm^3
[5]; Day 24
  Tumor volume: 161.17 mm^3
[5]; Day 28
  Tumor volume: 200.97 mm^3
[5]; Day 31
  Tumor volume: 227.65 mm^3
[5]; Day 35
  Tumor volume: 294.09 mm^3
[6]; 30 mg/kg p.o.
  weight loss: caused significant weight loss
[6]; 30 mg/kg p.o., Day 19
  Tumor volume: 189.76 mm^3
[6]; 30 mg/kg p.o., Day 22
  Tumor volume: 291.62 mm^3
[6]; 30 mg/kg p.o., Day 24
  Tumor volume: 311.64 mm^3
[6]; 30 mg/kg p.o., Day 27
  Tumor volume: 340.46 mm^3
[6]; 30 mg/kg p.o., Day 31
  Tumor volume: 398.84 mm^3
[6]; 30 mg/kg p.o., Day 36
  Tumor volume: 491.06 mm^3
[6]; 30 mg/kg p.o., Day 39
  Tumor volume: 509.41 mm^3
[6]; 30 mg/kg p.o., Day 42
  Tumor volume: 657.51 mm^3
[6]; 30 mg/kg p.o., Day 46
  Tumor volume: 816.63 mm^3
[6]; 30 mg/kg p.o., Day 49
  Tumor volume: 1012.20 mm^3
[6]; 30 mg/kg p.o., Day 53
  Tumor volume: 1484.78 mm^3
[6]; [10]
  T/C (%): 65.95%
  TGI (%): 34.05%
[6]; 30 mg/kg, QDx21 Days, p.o., Day 53, in mm³ (unit assumed)
  Tumor volume (x ± S): 1484.78 ± 304.89
[7]; Day 0
  Size of tumor volume: 107.93 mm^3
[7]; Day 4
  Size of tumor volume: 170.15 mm^3
[7]; Day 7
  Size of tumor volume: 197.93 mm^3
[7]; Day 11
  Size of tumor volume: 218.34 mm^3
[7]; Day 14
  Size of tumor volume: 321.83 mm^3
[7]; Day 18
  Size of tumor volume: 391.52 mm^3
[7]; Day 21
  Size of tumor volume: 481.85 mm^3
[7]; Day 25
  Size of tumor volume: 730.68 mm^3
[7]; Day 28
  Size of tumor volume: 1003.42 mm^3
[7]; Day 32
  Size of tumor volume: 1333.07 mm^3
[7]; Day 35
  Size of tumor volume: 1595.00 mm^3
[7]; Day 39
  Size of tumor volume: 2102.94 mm^3
[7]; Day 42
  Size of tumor volume: 2729.04 mm^3
[7]; Day 46
  Size of tumor volume: 2892.15 mm^3
[7]; Day 49
  Size of tumor volume: 2600.00 mm^3
[7]; Sorafenib 30 mg/kg, Day 28
  T/C (%): 71.01%
  TGI (%): 28.99%
[7]; Sorafenib 30 mg/kg, Day 28, mean ± standard error, in mm³ (unit assumed)
  Tumor volume (x ± S): 1003.42 ± 128.88
[7]; treatment period, tested doses
  weight loss: weight loss in individual mice
[8]
  Tumor volume (x ± S): 315.93 ± 81.35
